Tests used:
GFRα1/RET = target: T1, GFRα1/RET (UniProt P35546+Q62997); assay: RET phosphorylation in N2A cells transfected with GFRα1; assay type: cell-based, rat GFRα1 in murine N2A cells
T1 construct: N2A cells (which express RET) transfected with GFRα1 or GFRα3 expression constructs; expressed in transfected cells; host or cells: Neuro2A (N2A) cells; GFRα1 plasmid was a gift from Dr. Milbrandt; RET is endogenous
Method: Since the original report argued that XIB4035 displaces GDNF binding to GFRα1 expressing cells (FIG. 2 in Tokugawa et al., Neurochem Int 42, 81-86 (2003).), potentially ARTN, on TH-luciferase activity and Ret phosphorylation. […] In this experiment, cells were treated with GDNF or ARTN with or without XIB4035 for 10 minutes and cell lysates were either collected immediately or treatment was washed out and replaced with growth media for 30, 60, or 120 minutes. […] Therefore, we tested cells expressing only one GFRα using either N2A cells (which express RET) transfected with GFRα1 or GFRα3 expression constructs, or B(E)2-C cells, which express only GFRα2 together with RET. […] The GFRα1 or GFRα3 transfected N2A cells were then treated with XIB4035 alone, the appropriate ligand for the expressed receptor alone, or XIB4035 and ligand in combination for 10 minutes, and collected lysates immediately after treatment or 60 minutes after washout. […] Similar results were obtained with GFRα2 and NRTN using B(E)2-C cells (FIG. 8). Thus, XIB4035 is a positive modulator of signaling by GDNF family ligands and their receptors, not an agonist for GFRα1 as previously reported.
For phosphorylated Ret immunoblot experiments, cells were treated with various combinations of molecules for 10 minutes and either collected immediately or had treatment washed out and returned to control treatment media for the times indicated prior to cell collection. Lysates were collected in buffer containing: 50 mM Tris-HCL, 1% TX-100, 0.25% Deoxycholic acid, 150 mM sodium chloride, 1 mM EDTA, 0.1 mM sodium fluoride, 0.1 mM sodium pyrophosphate, 0.02 mM sodium orthovanadate, and protease inhibitors Immunoblots were blocked in 5% bovine serum albumin in tris-buffered saline+0.2% Tween 20+0.1 mM sodium fluoride, 0.1 mM sodium pyrophosphate, and 0.02 mM sodium orthovanadate and probed in blocking solution using anti-phospotyrosine (4G10) mouse monoclonal antibody (1:2000; EMD Milipore Corp., Billerica, Mass.). […]

GFAP-DN-erbB4 mice = assay: PGP9.5-positive IENF density in hind paw skin; assay type: in vivo, mouse; conditions: treatment initiated after disease onset (P28), read at P35
Method: However, in the clinic, therapy would almost certainly begin after patients present with symptoms of SFN. Therefore, it was determined whether topical XIB4035 can act as a disease-modifying agent in the GFAP-DN-erbB4 neuropathy model starting after animals are clearly symptomatic (P28). […] While IB4 labeling in mutant mice was lower than wild types regardless of treatment, IB4 signal was clearly present in mutant mice treated with XIB4035 while absent in those treated with control cream (FIG. 3D; 83% of XIB4035 treated mice (n=6) with IB4+ lamina II terminals vs 0% (n=4) in control treated mice) (FIG. 3D).
Mice were anesthetized with 2.5% Avertin. Hind paws were removed, immersion fixed in 2% paraformaldehyde, 14% picric acid in 0.1 M phosphate buffer (pH 7.4) overnight at 4° C., and cryoprotected in 20% sucrose overnight at 4° C. Footpad skin was dissected from hind paws, embedded in OCT, sectioned at 30 μm, and stained as floating sections. […]
Skin section images were acquired as 30 μm Z-stacks (1 μm intervals) and processed as maximum intensity projections using a Zeiss LSM 700 microscope and ZEN software. […] A measured line was drawn using the DAPI channel to delineate the border between basal keratinocytes and outer layers of the epidermis. All PGP9.5 positive IENFs crossing the border were counted and expressed as a number per 100 μm length. […]

RET = target: T2, RET (Homo sapiens, UniProt P07949+P56159); assay: RET phosphorylation phospho-tyrosine Western blot in SH-SY5Y cells; assay type: cell-based
T2 construct: endogenous in cells; host or cells: SH-SY5Y (SH-SY5Y-THpGL3) human neuroblastoma cells
T2 sequence (P07949 29-1114): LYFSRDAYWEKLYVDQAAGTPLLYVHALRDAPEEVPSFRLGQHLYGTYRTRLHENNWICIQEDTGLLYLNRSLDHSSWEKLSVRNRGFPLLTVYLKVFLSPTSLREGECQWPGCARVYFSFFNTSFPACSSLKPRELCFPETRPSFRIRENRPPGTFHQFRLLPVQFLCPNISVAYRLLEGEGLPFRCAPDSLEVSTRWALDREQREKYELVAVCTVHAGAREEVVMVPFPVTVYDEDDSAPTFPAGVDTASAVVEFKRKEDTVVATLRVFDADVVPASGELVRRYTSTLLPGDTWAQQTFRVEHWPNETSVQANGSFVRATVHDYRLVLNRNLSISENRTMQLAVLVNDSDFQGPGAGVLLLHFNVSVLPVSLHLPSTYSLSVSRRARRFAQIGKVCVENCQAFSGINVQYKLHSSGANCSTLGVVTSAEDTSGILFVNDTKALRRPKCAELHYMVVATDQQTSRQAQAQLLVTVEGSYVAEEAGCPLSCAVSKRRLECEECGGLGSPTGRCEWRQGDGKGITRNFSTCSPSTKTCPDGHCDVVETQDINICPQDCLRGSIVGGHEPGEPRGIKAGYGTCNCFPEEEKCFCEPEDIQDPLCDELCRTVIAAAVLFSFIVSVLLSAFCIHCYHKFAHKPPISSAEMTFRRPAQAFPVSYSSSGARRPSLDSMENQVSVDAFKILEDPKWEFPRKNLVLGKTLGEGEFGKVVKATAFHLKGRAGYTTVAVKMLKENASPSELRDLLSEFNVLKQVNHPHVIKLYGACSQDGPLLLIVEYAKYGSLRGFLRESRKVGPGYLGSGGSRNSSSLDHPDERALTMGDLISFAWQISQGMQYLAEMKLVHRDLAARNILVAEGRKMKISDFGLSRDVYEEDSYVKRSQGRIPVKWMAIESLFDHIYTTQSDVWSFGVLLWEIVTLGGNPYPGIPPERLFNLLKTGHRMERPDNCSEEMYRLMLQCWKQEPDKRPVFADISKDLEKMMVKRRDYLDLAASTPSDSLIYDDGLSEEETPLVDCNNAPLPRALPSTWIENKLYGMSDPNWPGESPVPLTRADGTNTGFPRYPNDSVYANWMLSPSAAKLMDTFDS
T2 sequence (P56159 25-429 limits assumed): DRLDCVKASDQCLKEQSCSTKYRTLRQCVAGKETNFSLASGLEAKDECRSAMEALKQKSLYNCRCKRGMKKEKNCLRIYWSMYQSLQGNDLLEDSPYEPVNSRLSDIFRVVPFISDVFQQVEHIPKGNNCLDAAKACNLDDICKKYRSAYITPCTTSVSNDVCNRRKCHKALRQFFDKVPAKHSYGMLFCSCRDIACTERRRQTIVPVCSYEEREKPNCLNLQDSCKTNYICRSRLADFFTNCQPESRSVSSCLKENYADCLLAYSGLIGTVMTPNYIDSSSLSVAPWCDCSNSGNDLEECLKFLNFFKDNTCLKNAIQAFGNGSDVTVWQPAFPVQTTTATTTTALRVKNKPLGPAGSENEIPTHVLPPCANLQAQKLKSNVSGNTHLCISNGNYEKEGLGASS
Excerpt: One goal of these studies was to determine if XIB4035 could be used for treating SFN in humans. Using the Neuro2A (N2A) murine neuroblastoma cell line, Tokugawa et al. (supra) reported XIB4035 as a competitive agonist for the GDNF receptor GFRα1 that activates the RET receptor. Since populations of DRG sensory neurons express different GFRα receptors, thus making them preferentially responsive to the particular ligands, it was important to determine if XIB4035 was specific to GFRα1 or could act on other family members. Since PSPN has no effect on peripheral sensory neurons, the GFRα1, GFRα2, and GFRα3 receptors were the focus of these studies. The SH-SY5Y, a human neuroblastoma cell line expressing mRNA for GFRα1, GFRα2, and GFRα3, was used to perform two cell-based assays; immunoblots measuring RET phosphorylation and a luciferase reporter assay using the tyrosine hydroxylase (TH) promoter. For the latter two paradigms were used, either overnight treatment immediately followed by luciferase activity measurements or 10 minute treatments followed by washout and overnight incubation prior to measurements. GDNF and ARTN induced robust TH-luciferase activity in a dose dependent manner (FIG. 3E). Because the responses to GDNF and ARTN were more robust, these two factors were chosen for further analysis.
Since the original report argued that XIB4035 displaces GDNF binding to GFRα1 expressing cells (FIG. 2 in Tokugawa et al., Neurochem Int 42, 81-86 (2003).), potentially ARTN, on TH-luciferase activity and Ret phosphorylation. […] In this experiment, cells were treated with GDNF or ARTN with or without XIB4035 for 10 minutes and cell lysates were either collected immediately or treatment was washed out and replaced with growth media for 30, 60, or 120 minutes. […] Therefore, we tested cells expressing only one GFRα using either N2A cells (which express RET) transfected with GFRα1 or GFRα3 expression constructs, or B(E)2-C cells, which express only GFRα2 together with RET. […]

T1 sequence (Q62997 25-430 limits assumed): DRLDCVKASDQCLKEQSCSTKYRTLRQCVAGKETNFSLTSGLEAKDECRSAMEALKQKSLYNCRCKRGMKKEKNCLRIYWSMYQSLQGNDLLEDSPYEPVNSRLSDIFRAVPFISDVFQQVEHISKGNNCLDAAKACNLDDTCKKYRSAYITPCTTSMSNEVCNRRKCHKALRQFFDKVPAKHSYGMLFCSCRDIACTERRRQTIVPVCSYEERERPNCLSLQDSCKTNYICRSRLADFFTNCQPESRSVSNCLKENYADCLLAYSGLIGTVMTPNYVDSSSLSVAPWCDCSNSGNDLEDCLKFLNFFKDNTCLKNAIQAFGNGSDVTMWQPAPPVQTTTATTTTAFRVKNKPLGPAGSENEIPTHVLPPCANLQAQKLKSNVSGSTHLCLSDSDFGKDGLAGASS
T1 sequence (P35546 29-1115): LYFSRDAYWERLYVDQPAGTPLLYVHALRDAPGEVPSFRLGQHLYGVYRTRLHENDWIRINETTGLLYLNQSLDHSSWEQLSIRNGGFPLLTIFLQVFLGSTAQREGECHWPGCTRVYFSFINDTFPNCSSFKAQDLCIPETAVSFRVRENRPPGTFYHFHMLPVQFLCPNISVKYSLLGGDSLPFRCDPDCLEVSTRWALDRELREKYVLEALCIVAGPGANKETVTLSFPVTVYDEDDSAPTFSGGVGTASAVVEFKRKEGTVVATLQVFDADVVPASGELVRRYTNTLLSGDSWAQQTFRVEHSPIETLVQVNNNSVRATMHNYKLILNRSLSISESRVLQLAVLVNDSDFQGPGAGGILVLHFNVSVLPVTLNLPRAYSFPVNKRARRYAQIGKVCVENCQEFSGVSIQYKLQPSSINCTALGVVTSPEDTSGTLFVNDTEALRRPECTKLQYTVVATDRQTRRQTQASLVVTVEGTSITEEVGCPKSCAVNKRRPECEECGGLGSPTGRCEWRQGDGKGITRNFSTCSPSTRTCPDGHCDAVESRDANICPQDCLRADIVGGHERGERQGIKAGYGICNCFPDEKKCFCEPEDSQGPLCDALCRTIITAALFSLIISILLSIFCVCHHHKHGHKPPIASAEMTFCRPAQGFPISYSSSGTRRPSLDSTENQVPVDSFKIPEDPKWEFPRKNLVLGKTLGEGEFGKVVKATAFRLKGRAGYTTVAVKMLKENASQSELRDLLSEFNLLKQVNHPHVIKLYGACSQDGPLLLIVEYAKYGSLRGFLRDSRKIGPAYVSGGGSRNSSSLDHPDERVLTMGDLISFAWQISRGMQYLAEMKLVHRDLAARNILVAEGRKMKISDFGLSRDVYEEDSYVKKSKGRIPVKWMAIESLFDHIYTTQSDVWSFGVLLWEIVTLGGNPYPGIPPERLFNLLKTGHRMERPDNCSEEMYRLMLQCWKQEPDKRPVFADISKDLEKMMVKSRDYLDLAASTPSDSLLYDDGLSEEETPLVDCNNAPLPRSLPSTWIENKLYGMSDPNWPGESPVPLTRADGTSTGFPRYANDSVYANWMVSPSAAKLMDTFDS

Q: Which results are given for `CCN(CC)CCCC(C)Nc1cc(/C=C/c2ccccc2Cl)nc2cc(Cl)ccc12` (centres unmarked) [XIB4035, N4-{7-chloro-2-[(E)-2-(2-chloro-phenyl)-vinyl]-quinolin-4-yl}-N1,N1-diethyl-pentane-1,4-diamine]?
A: induction of RET phosphorylation (GFRα1/RET; XIB4035 alone, 10 minutes): did not induce RET phosphorylation; RET phosphorylation at the 60 min time-point compared to ligand alone (GFRα1/RET; XIB4035 and ligand co-treatment, 60 minutes after washout): clearly prolonged; IENF density in hind paw skin (GFAP-DN-erbB4 mice): did not rescue IENF density; duration of ligand-induced RET phosphorylation after washout (RET; 20 μM XIB4035 with 2 nM GDNF or 1 nM ARTN, 10 minutes treatment): at least 120 minutes; induction of RET phosphorylation (RET; XIB4035 alone, various concentrations, two or 10 minutes): failed to induce RET phosphorylation

From patent US20160045487A1, “COMPOSITIONS AND METHODS FOR TREATING NEUROPATHY” (CHILDEREN'S MEDICAL CENTER CORPORATION, priority 2013, published 2016)
